{"source": "ChEMBL document CHEMBL5465560", "about": "“Selectivity Literature for EUbOPEN Chemogenomic Library” (2024)", "key": {"[1]": {"target": "Serine/threonine-protein kinase MARK2 (Homo sapiens) (UniProt Q7KZI7)", "sequence (Q7KZI7 whole entry)": "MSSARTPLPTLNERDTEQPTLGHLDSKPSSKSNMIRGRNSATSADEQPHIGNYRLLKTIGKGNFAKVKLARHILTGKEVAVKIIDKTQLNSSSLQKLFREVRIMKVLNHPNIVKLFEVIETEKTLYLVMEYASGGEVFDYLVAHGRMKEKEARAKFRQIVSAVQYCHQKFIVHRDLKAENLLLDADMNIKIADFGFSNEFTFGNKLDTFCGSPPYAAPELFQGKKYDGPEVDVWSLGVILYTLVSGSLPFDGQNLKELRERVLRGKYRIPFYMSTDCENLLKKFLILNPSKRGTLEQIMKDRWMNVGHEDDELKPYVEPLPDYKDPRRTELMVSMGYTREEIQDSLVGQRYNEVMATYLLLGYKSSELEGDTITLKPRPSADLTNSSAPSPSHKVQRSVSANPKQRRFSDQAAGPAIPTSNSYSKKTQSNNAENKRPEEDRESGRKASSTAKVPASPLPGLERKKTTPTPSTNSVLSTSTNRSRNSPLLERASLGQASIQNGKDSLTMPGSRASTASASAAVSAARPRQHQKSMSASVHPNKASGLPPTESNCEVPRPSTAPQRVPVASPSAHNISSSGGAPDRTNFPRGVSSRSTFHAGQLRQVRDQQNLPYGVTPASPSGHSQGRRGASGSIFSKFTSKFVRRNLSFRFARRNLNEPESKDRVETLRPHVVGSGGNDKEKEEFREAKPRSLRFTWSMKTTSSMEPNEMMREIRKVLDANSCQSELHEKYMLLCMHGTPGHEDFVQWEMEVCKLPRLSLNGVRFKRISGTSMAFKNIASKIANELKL", "assay": "Selectivity interaction (ActivX KiNativ screen (kinase selectivity in THP-1 cell lysates)) EUB0000639a MARK2", "type": "subcellular", "conditions": "lysate, at 5 µM"}, "[2]": {"target": "Mitogen-activated protein kinase 9 (Homo sapiens, UniProt P45984)", "sequence (P45984 whole entry, looked up)": "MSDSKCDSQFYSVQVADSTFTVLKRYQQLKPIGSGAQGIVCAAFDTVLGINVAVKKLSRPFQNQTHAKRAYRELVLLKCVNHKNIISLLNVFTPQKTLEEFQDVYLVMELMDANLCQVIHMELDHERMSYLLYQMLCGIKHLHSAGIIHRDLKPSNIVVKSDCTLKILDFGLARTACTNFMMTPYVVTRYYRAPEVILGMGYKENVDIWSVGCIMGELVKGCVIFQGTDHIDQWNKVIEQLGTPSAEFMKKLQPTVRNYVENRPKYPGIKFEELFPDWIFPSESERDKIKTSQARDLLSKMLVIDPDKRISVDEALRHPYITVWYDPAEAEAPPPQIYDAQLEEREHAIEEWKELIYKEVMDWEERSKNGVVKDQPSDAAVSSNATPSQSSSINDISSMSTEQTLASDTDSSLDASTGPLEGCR", "conditions": "at 10 µM"}, "[3]": {"target": "STE20/SPS1-related proline-alanine-rich protein kinase (Homo sapiens) (UniProt Q9UEW8)", "assay": "Selectivity interaction (KinomeScan (DiscoverX)) EUB0000092b STK39", "conditions": "at 10 µM"}, "[4]": {"target": "Receptor-interacting serine/threonine-protein kinase 2 (Homo sapiens, UniProt O43353)", "sequence (O43353 whole entry)": "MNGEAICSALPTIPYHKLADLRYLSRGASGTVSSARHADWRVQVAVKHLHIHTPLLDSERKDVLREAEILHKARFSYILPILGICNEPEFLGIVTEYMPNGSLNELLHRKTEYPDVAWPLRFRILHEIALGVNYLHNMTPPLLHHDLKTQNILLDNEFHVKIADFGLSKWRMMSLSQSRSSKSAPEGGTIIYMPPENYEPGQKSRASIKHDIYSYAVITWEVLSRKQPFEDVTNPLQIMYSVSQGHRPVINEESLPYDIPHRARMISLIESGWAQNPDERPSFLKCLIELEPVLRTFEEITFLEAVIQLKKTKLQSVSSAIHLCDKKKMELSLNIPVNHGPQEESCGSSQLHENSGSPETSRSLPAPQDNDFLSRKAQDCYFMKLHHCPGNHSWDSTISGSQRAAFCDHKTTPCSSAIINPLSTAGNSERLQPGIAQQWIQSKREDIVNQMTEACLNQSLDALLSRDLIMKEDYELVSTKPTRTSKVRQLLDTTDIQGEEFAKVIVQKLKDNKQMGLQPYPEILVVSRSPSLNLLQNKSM", "assay": "Selectivity interaction (Ambit KINOMEscan and KiNATiv profiling in Jurkat cells) EUB0000090b RIPK2", "type": "cell-based", "conditions": "at 1 µM"}, "[5]": {"target": "T1, Serine/threonine-protein kinase tousled-like 1 (Homo sapiens) (UniProt Q9UKI8)", "T1 sequence (whole entry)": "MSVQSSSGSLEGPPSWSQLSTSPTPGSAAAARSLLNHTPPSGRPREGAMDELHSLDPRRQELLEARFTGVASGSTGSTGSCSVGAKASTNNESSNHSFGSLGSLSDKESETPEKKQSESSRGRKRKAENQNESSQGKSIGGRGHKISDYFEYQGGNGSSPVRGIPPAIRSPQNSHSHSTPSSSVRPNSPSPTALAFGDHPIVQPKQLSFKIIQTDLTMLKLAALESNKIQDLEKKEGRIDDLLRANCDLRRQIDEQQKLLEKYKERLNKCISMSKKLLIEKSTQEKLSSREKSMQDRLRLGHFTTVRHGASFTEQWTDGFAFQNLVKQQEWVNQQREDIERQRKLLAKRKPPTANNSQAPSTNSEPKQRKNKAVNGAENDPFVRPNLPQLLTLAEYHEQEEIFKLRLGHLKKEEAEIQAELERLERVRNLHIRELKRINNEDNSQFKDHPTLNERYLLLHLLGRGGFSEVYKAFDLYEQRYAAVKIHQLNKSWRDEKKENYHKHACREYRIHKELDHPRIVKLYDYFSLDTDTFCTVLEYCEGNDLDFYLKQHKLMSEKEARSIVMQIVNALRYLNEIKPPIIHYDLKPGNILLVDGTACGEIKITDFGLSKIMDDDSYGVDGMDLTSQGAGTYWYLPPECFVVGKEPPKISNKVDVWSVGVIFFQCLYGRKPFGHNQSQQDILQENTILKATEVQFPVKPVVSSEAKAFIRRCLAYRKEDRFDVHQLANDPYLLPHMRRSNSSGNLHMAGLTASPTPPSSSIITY", "conditions": "at 10 µM"}, "[6]": {"target": "T2, Ephrin type-B receptor 6 (Homo sapiens) (UniProt O15197)", "T2 sequence (whole entry)": "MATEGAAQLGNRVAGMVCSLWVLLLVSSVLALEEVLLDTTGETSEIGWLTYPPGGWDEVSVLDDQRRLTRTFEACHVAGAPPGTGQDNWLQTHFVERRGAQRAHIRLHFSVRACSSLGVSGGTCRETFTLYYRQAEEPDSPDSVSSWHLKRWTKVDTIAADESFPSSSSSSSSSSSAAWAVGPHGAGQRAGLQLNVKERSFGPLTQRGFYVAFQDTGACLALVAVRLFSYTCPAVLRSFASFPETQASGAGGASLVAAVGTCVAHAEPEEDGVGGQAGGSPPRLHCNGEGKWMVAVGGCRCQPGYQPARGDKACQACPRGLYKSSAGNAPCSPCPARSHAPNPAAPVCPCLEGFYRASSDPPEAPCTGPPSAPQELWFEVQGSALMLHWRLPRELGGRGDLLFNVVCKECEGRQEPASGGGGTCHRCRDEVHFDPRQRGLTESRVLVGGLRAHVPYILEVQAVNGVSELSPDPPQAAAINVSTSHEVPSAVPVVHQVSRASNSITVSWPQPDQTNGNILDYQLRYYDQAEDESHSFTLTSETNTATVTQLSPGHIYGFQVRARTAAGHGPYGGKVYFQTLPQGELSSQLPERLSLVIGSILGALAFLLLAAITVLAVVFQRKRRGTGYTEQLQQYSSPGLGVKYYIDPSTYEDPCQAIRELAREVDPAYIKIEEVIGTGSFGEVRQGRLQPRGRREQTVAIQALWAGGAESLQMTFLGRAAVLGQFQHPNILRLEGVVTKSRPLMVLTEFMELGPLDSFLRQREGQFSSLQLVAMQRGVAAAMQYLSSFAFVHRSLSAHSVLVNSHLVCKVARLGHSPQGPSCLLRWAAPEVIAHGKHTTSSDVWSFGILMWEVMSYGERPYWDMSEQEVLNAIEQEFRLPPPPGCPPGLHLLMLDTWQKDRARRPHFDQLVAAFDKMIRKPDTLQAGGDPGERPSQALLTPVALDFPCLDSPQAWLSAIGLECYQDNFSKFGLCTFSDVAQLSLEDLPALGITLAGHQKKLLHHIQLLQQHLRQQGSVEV", "assay": "Selectivity interaction (KinomeScan (DiscoverX)) EUB0000655a EPHB6", "conditions": "at 10 µM"}, "[7]": {"target": "Tyrosine-protein kinase Srms (Homo sapiens) (UniProt Q9H3Y6)", "sequence (Q9H3Y6 whole entry)": "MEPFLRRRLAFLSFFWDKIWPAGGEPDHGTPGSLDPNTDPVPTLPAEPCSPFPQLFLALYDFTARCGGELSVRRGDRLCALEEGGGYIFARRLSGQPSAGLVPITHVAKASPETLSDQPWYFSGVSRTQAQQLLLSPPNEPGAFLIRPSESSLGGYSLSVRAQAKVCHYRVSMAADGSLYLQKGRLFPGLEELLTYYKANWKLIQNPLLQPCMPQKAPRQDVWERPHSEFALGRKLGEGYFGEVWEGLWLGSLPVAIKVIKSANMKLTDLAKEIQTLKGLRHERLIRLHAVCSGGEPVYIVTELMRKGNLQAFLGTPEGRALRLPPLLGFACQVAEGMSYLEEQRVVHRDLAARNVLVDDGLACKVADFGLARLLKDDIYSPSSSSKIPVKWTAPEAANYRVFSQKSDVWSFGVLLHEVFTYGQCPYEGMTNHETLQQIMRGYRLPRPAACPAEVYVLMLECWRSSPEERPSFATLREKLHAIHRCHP", "assay": "Selectivity interaction (KinomeScan (DiscoverX)) EUB0000655a SRMS", "conditions": "at 10 µM"}, "[8]": {"target": "Serine/threonine-protein kinase 32C (Homo sapiens) (UniProt Q86UX6)", "sequence (Q86UX6 whole entry)": "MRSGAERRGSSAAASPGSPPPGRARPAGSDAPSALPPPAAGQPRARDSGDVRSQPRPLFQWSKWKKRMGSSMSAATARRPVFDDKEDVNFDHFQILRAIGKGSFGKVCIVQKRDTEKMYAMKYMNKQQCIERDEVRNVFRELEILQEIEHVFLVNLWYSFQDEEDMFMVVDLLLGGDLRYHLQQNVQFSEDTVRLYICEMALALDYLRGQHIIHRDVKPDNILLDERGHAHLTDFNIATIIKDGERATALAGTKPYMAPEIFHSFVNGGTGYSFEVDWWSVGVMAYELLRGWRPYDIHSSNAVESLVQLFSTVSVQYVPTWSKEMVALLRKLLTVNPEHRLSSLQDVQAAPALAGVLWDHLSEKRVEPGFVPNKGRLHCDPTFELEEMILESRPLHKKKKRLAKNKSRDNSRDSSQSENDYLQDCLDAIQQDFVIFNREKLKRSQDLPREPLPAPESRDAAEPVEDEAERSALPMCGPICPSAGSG", "assay": "Selectivity interaction (KinomeScan (DiscoverX)) EUB0000695a STK32C", "conditions": "at 100 nM"}, "[9]": {"target": "T3, Histone-arginine methyltransferase CARM1 (Homo sapiens) (UniProt Q86X55)", "T3 sequence (whole entry)": "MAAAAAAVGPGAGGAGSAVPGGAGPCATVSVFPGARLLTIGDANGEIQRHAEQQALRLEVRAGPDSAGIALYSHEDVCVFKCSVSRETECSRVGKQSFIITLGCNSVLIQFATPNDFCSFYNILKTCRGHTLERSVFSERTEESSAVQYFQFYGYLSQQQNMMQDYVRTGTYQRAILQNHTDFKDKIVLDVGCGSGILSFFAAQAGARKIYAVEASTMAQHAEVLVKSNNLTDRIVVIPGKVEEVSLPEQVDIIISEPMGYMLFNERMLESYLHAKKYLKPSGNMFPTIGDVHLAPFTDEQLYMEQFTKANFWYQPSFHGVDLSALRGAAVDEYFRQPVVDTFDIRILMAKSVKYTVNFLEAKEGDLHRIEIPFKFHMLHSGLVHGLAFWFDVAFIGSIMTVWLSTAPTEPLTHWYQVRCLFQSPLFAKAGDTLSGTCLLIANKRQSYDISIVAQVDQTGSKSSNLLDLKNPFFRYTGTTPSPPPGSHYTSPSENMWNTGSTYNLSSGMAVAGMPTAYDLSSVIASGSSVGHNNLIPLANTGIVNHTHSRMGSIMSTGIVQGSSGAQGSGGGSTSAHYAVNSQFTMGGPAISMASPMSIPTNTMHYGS", "assay": "Selectivity interaction (Methyltransferase screen (radiometric assays, panel of 8 PRMTs, 21 protein lysine methyltransferases, 3 DNA methyltransferases, and one RNA methyltransferase)) EUB0000272b CARM1"}}, "data": [{"smiles": "CC[C@@H]1[C@H](F)C(=O)N[C@@H]1COc1nccc2cc(C(N)=O)c(OC)cc12", "note": "[ZIMLOVISERTIB]", "values": [{"measurement": "% of inhibition", "setting": "[1]", "result": 48.9, "unit": "%"}]}, {"smiles": "COCC(=O)NC/C=C/c1ccc2ncnc(Nc3ccc(Oc4ccc(C)nc4)c(C)c3)c2c1", "note": "[CP-724714]", "values": [{"measurement": "% of control", "setting": "[2]", "result": 53, "unit": "%"}]}, {"smiles": "CCC(=O)N1CCN(c2ccc(-n3c(=O)ccc4cnc5ccc(-c6cnc7ccccc7c6)cc5c43)cc2C(F)(F)F)CC1", "values": [{"measurement": "% of control", "setting": "[3]", "result": 100, "unit": "%"}]}, {"smiles": "CN(C)C/C=C/C(=O)Nc1ccc(C(=O)N2CCCC(Nc3ncc(Cl)c(-c4c[nH]c5ccccc45)n3)C2)cc1", "note": "(stereo not given)", "values": [{"measurement": "% of control", "setting": "[4]", "result": 88, "unit": "%"}]}, {"smiles": "Cc1cc([C@@H](C)Nc2ccccc2C(=O)O)c2nc(N3CCOCC3)cc(=O)n2c1", "note": "[AZD-6482]", "values": [{"measurement": "% of control", "setting": "[5]", "result": 96, "unit": "%"}]}, {"smiles": "CN(C)CCOc1ccc(-c2nc(-c3ccncc3)c(-c3ccc4c(c3)CC/C4=N\\O)[nH]2)cc1", "values": [{"measurement": "% of control", "setting": "[6]", "result": 34, "unit": "%"}, {"measurement": "% of control", "setting": "[7]", "result": 74, "unit": "%"}]}, {"smiles": "Cc1cc(F)c(C(=O)Nc2cccc(-c3nncn3C(C)C)n2)cc1-n1cnc(C2CC2)c1", "values": [{"measurement": "% of control", "setting": "[8]", "result": 100, "unit": "%"}]}, {"smiles": "Cc1cc(C)cc([C@H]2c3cc(C)ccc3NC(=O)CN2C(=O)c2ccc(Br)s2)c1", "values": [{"measurement": "% of activity", "setting": "[9]; at 1 µM", "result": 102, "unit": "%"}, {"measurement": "% of activity", "setting": "[9]; at 10 µM", "result": 96.7, "unit": "%"}]}]}
